Data taken from patent publication US11827644B2, “Pyrazine derivative and application thereof in inhibiting SHP2” (SUZHOU GENHOUSE PHARMACEUTICAL CO., LTD, priority 2019, dated 2023).

Target: SHP2 (Homo sapiens (Human), UniProt Q06124)
Experiment: SHP2 allosteric inhibition experiment (DiFMUP fluorescence)
Assay type: biochemical
Settings: 0.5 nM SHP2 activated with 0.5 μM peptide IRS1_pY1172(dPEG8)pY1222; substrate DiFMUP; 25° C.; read-out: IC50 values of compounds inhibiting SHP2
Text: SHP2 allosteric inhibition experiment
SHP2 is allosterically activated through the activation of a bis-tyrosyl-phosphorylated peptide and Src Homology 2 (SH2) domains. The activation steps followed result in the release of the auto-inhibition interface, which in turn activates the SHP2 protein tyrosine phosphatase (PTP) and can be used for substrate recognition and reaction catalysis. The SHP2 catalytic activity is monitored by a rapid fluorescent mode with the alternative substrate DiFMUP.
The phosphatase reaction was conducted in 384-well black polystyrene plates (Corning, Cat #3575) with flat bottom, low edge and non-binding surface at room temperature and 25 μl final volume of the following buffer condition: 60 mM HEPES, pH 7.2, 75 mM NaCl, 75 mM KCl, 1 mM EDTA, 0.05% P-20, 5 mM DTT.
The following experiments were conducted to monitor the SHP2 inhibition by the compounds (at concentrations of 0.0003-100 μM) in this invention:
Wherein, incubate 0.5 nM SHP2 with 0.5 μM peptide IRS1_pY1172 (dPEG8) pY1222 (sequence: H2N-LN (pY) IDLDLV (dPEG8) LST (pY) ASINFQK-amide) (SEQ ID NO: 1) (WO2016/203406A1). After incubation at 25° C. for 30-60 minutes, the alternative substrate DiFMUP (Invitrogen, cat #D6567) was added to the reaction and incubated at 25° C. for 30 minutes. The reaction was then carefully […] by adding 5 μL of a 160 μM bpV (Phen) solution (Enzo Life Sciences cat #ALX-270-204). The fluorescence signal was monitored using a microplate reader (VARIOSKAN LUX, Thermo) with excitation and emission wavelengths of 340 nm and 450 nm, respectively. The inhibitory dose-response curve is analyzed using a standardized IC50 regression curve based on control-based normalization.

SHP2, sequence (Q06124 whole entry): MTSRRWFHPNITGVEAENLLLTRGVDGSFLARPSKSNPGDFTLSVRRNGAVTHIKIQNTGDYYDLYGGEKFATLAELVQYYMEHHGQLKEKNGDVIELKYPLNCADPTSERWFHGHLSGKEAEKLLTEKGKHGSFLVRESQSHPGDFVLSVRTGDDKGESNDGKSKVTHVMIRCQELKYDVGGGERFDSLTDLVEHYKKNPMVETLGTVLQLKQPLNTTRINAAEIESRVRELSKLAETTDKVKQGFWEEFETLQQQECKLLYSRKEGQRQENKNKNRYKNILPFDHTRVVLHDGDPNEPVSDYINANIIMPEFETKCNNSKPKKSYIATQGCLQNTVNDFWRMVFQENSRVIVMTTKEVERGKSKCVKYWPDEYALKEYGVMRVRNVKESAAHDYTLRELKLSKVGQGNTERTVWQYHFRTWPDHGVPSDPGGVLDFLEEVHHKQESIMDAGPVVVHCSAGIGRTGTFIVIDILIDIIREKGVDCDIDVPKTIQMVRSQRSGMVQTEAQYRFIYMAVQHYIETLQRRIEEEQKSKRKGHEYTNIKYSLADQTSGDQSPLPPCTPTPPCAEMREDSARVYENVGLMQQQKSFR

| Structure (SMILES) | IC50 |
| --- | --- |
| C[C@@H]1OCC2(CCN(c3cnc(Sc4cccc(-c5cnn6cccnc56)c4Cl)cn3)CC2)[C@@H]1N [Example 23] | 3.28 nM |
| C[C@@H]1OCC2(CCN(c3cnc(Sc4cccc(-c5nc(C#N)co5)c4Cl)cn3)CC2)[C@@H]1N [Example 27] | 3.51 nM |
| C[C@@H]1OCC2(CCN(c3cnc(Sc4cccc(NC(=O)c5c(O)nc6ccccn6c5=O)c4Cl)cn3)CC2)[C@@H]1N [Example 36] | 6.42 nM |
| Cc1coc(-c2cccc(Sc3cnc(N4CCC5(CC4)CO[C@@H](C)[C@H]5N)cn3)c2Cl)n1 [Example 24] | 2.41 nM |
| C[C@@H]1OCC2(CCN(c3cnc(Sc4cccc(-c5nccs5)c4Cl)cn3)CC2)[C@@H]1N [Example 34] | 5.34 nM |
| C[C@@H]1OCC2(CCN(c3cnc(Sc4cccc(N5C(=O)C6CC6C5=O)c4Cl)cn3)CC2)[C@@H]1N (stereo partly shown) [Example 31] | 7.91 nM |
| C[C@@H]1OCC2(CCN(c3cnc(Sc4cccc(NC(=O)c5cc(F)c(F)cc5Cl)c4Cl)cn3)CC2)[C@@H]1N [Example 13] | 5.88 nM |
| CCn1ccc(-c2cccc(Sc3cnc(N4CCC5(CC4)CO[C@@H](C)[C@H]5N)cn3)c2Cl)n1 [Example 25] | 1.74 nM |
| C[C@@H]1OCC2(CCN(c3cnc(Sc4cccc(Nc5cnccn5)c4Cl)cn3)CC2)[C@@H]1N [Example 2] | 2.71 nM |
| C[C@@H]1OCC2(CCN(c3cnc(Sc4cccc(NC(=O)c5ccccc5O)c4Cl)cn3)CC2)[C@@H]1N [Example 37] | 9.01 nM |
| C[C@@H]1OCC2(CCN(c3cnc(Sc4cccc(NC(=O)c5ccccc5C(=O)O)c4Cl)cn3)CC2)[C@@H]1N [Example 22] | 1.72 nM |
| C[C@@H]1OCC2(CCN(c3cnc(Sc4cccc(N5CCCC5)c4Cl)cn3)CC2)[C@@H]1N [Example 4] | 7.88 nM |
| C[C@@H]1OCC2(CCN(c3cnc(Sc4cccc(NC(=O)c5cc6n(n5)CCC6)c4Cl)cn3)CC2)[C@@H]1N [Example 39] | 8.3 nM |
| C[C@@H]1OCC2(CCN(c3cnc(Sc4cccc(NC(=O)c5cccc(F)c5Cl)c4Cl)cn3)CC2)[C@@H]1N [Example 10] | 5.1 nM |
| C[C@@H]1OCC2(CCN(c3cnc(Sc4cccc(-c5ccn(C)n5)c4Cl)cn3)CC2)[C@@H]1N [Example 5] | 2.12 nM |
| C[C@@H]1OCC2(CCN(c3cnc(Sc4cccc(-c5nc(C#N)cs5)c4Cl)cn3)CC2)[C@@H]1N [Example 17] | 4.35 nM |
| C[C@@H]1OCC2(CCN(c3cnc(Sc4ccnc(-c5cnccn5)c4Cl)cn3)CC2)[C@@H]1N [Example 7] | 41.6 nM |
| C[C@@H]1OCC2(CCN(c3cnc(Sc4cccc(-c5ccn6nccc6n5)c4Cl)cn3)CC2)[C@@H]1N [Example 32] | 2.82 nM |
| C[C@@H]1OCC2(CCN(c3cnc(Sc4cccc(-c5cnc6[nH]ccc6n5)c4Cl)cn3)CC2)[C@@H]1N [Example 41] | 6.2 nM |
| C[C@@H]1OCC2(CCN(c3cnc(Sc4cccc(-c5cccs5)c4Cl)cn3)CC2)[C@@H]1N [Example 28] | 9.4 nM |
| C[C@@H]1OCC2(CCN(c3cnc(Sc4cccc(-c5nc(C(N)=O)co5)c4Cl)cn3)CC2)[C@@H]1N [Example 19] | 1.95 nM |
| C[C@@H]1OCC2(CCN(c3cnc(Sc4cccc(NC(=O)c5cc6n(n5)CCCC6)c4Cl)cn3)CC2)[C@@H]1N [Example 30] | 6.45 nM |

| Structure (SMILES) | IC50 |
| --- | --- |
| C[C@@H]1OCC2(CCN(c3cnc(Sc4cccc(-c5nc(C#N)co5)c4Cl)cn3)CC2)[C@@H]1N [Example 15] | 4.06 nM |
| C[C@@H]1OCC2(CCN(c3cnc(Sc4cccc(NC(=O)c5ncccn5)c4Cl)cn3)CC2)[C@@H]1N [Example 35] | 2.91 nM |
| C[C@@H]1OCC2(CCN(c3cnc(Sc4cccc(-c5nc6ccccc6o5)c4Cl)cn3)CC2)[C@@H]1N [Example 14] | 9.24 nM |
| C[C@@H]1OCC2(CCN(c3cnc(Sc4cccc(-c5nc(C(=O)O)co5)c4Cl)cn3)CC2)[C@@H]1N [Example 20] | 1.27 nM |
| C[C@@H]1OCC2(CCN(c3cnc(Sc4cccc(-c5cnccn5)c4Cl)c(N)n3)CC2)[C@@H]1N [Example 8] | 5.12 nM |
| C[C@@H]1OCC2(CCN(c3cnc(Sc4cccc(NC(=O)c5c(O)nc6n(c5=O)CCCC6)c4Cl)cn3)CC2)[C@@H]1N [Example 11] | 0.31 nM |
| Cc1ncsc1-c1cccc(Sc2cnc(N3CCC4(CC3)CO[C@@H](C)[C@H]4N)cn2)c1Cl [Example 16] | 4.9 nM |
| C[C@@H]1OCC2(CCN(c3cnc(Sc4cccc(-c5ncco5)c4Cl)cn3)CC2)[C@@H]1N [Example 3] | 1.26 nM |
| C[C@@H]1OCC2(CCN(c3cnc(Sc4cccc(NC(=O)c5ccn(C)n5)c4Cl)cn3)CC2)[C@@H]1N [Example 12] | 3.59 nM |
| C[C@@H]1OCC2(CCN(c3cnc(Sc4cccc(Nc5cnn(C)c5)c4Cl)cn3)CC2)[C@@H]1N [Example 44] | 7.3 nM |
| C[C@@H]1OCC2(CCN(c3cnc(Sc4cccc(-c5cnccn5)c4Cl)cn3)CC2)[C@@H]1N [Example 6] | 1.31 nM |
| C[C@@H]1OCC2(CCN(c3cnc(Sc4cccc(-c5cnc6ccnn6c5)c4Cl)cn3)CC2)[C@@H]1N [Example 29] | 6.62 nM |
| C[C@@H]1OCC2(CCN(c3cnc(Sc4cccc(NC(=O)c5cc(Cl)ccc5O)c4Cl)cn3)CC2)[C@@H]1N [Example 38] | 9.41 nM |
| C[C@@H]1OCC2(CCN(c3cnc(Sc4cccc(-c5cnn(CCO)c5)c4Cl)cn3)CC2)[C@@H]1N [Example 42] | 3.4 nM |
| C[C@@H]1OCC2(CCN(c3cnc(Sc4cccc(-c5ncccn5)c4Cl)cn3)CC2)[C@@H]1N [Example 9] | 6.61 nM |
| Cc1csc(-c2cccc(Sc3cnc(N4CCC5(CC4)CO[C@@H](C)[C@H]5N)cn3)c2Cl)n1 [Example 18] | 7.93 nM |
| C[C@@H]1OCC2(CCN(c3cnc(Sc4cccc(-c5cn6ccnc6cn5)c4Cl)cn3)CC2)[C@@H]1N [Example 26] | 6.33 nM |
| CCn1cc(-c2cccc(Sc3cnc(N4CCC5(CC4)CO[C@@H](C)[C@H]5N)cn3)c2Cl)cn1 [Example 40] | 4.4 nM |
| C[C@@H]1OCC2(CCN(c3cnc(Sc4cccc(N5CCCC5=O)c4Cl)cn3)CC2)[C@@H]1N [Example 1] | 7.69 nM |
| C[C@@H]1OCC2(CCN(c3cnc(Sc4cccc(Nc5ncccn5)c4Cl)cn3)CC2)[C@@H]1N [Example 43] | 7.5 nM |
| C[C@@H]1OCC2(CCN(c3cnc(Sc4cccc(-c5ccc(C#N)o5)c4Cl)cn3)CC2)[C@@H]1N [Example 21] | 6.01 nM |
